Test results as given in patent publication US8293775B2, “Benzoxazolone derivatives, processes for preparing them and their uses” (UCB Pharma, S.A., priority 2004, dated 2012).

Test system: 6-OHDA rat model
Test: Hemi-parkinsonian (6-OHDA lesioned) rat model: prolongation of L-DOPA-induced contralateral rotations
Settings: second hour post administration (61-120 min); L-DOPA 50 mg/kg i.p. with vehicle (DMSO, i.p.); male Sprague-Dawley rats

Structure (SMILES): N[C@@H](Cc1ccc(O)c(O)c1)C(=O)O [L-Dopa, L-3,4-dihydroxyphenylalanine]
- total number of rotations observed with L-Dopa alone: less than 50 turns
